Measurements taken from patent US6800630B2, “Pyrimidine derivatives having antitumor effect” (Shionogi & Co., Ltd., priority 2000, dated 2004).
Values after ≈ are worked out from the molar mass of the structure shown.

How the values were obtained:
Format in all cases: cell-based
[1] = test system: signal derived from Ras oncogene products (DT-R cells, pRRE3-luc transfected v-ki-ras-transformed NIH373 cells); test: Inhibitory effect against cellular signaling derived from Ras oncogene products: RRE-luciferase reporter, Minimal Active Concentration (MAC) at which DT-C and DT-R activities dissociate; conditions: minimal concentration at which luciferase activities of DT-C and DT-R cells dissociated
Excerpt: (§1) Test Example 1 Inhibitory effect against cellular signaling derived from Ras oncogene products
(§2) Based on the reporter plasmid (pGV-P (Toyo Ink, Japan)), in which luciferase gene was ligated to SV40-derived minimal promoter, we constructed a plasmid designated pRRE3-luc by inserting 3 copies of chemically synthesized oligonucleotides (Sequence: CAGGATATGACTCT, derived from mouse NVL-3 (M. A. Reddy et al.(1992)Mol. Endocrinol., 6, 1051)) into upstream of the promoter. v-ki-ras-transformed NIH373 cells (DT cells, provided by Dr. Makoto Noda (Kyoto Univ., School of medicine)) were transfected with this plasmid by liposome-mediated transfection and transfected cell lines stably incorporated and maintained each plasmid were obtained. We named pGV-P and pRRE3-transfected cell line as DT-C and DT-R, respectively and used in the assay described below.
(§3) i) All the cell lines were cultured in Dulbecco's Modified Essential Medium (DMEM: 10% Fetal Calf Serum(FCS: Hyclone, USA)) including […] kanamycin (Meiji Seika, Japan) in humidified incubator under condition of 5% CO2 at 37° C.
(§4) ii) DT-C and DT-R cells were seeded at 2500 cells/well into flat-bottom 96 well multiplate (Sumitomo bakelite) and incubated for 24 hours.
(§5) iii) Test compounds were prepared as 1 mg/ml DMSO solution.
(§6) iv) The solution of test compounds were added to the culture. Tested compounds are used at the concentration from […] to 0.51 ng/ml with 3-fold dilution.
(§7) v) After 24 hours, the culture supernatant was completely aspirated and 20 μl of cell-lysing solution (PGC-50 (Toyo Ink, Japan)) was added before cells were dried up. In order to lyse the cells completely, multiwell plates were left at room temperature for 10 to 30 min. The plates were wrapped up and stored at −20° C. till the day of measurement.
(§8) i) Melt the samples by putting 96 well multiplate at 37° C. and add 90 μl/well 25 mM Tris (pH 7.5).
(§9) ii) Transfer 50 μl of the sample (110 μl) to the 96 well microplate (Microlite 1 (Dynatech)) for measurement.
(§10) iii) Measure the samples by the luminometer, LUMINOUS CT9000D (Dia-Yatron, Japan). We used Pickagene luminescence kit PGL2000 or LT2.0 (Toyo Ink, Japan) as enzyme substrates for luminescence measurement (50 μl/well).
(§11) i) The luciferase activity of DT-C cells and DT-R cells were plotted in the graph where the relative activity and the compound concentration were expressed as Y-axis and X-axis, respectively. We judged by the degree of dissociation between the activities of DT-C cells and DT-R cells as an index.
ii) Concretely, efficacy of the compound was expressed by two values described below.
a) Among the points of concentration tested, the minimal concentration (Minimal Active Concentration: MAC), at which the activities of DT-C cells and DT-R cells dissociated, was shown as an index of efficacy of the compound.

[2] = test system: DT-C cells (pGV-P transfected v-ki-ras-transformed NIH373 cells); test: Luciferase activity of DT-C control cells (IC50-C), index of non-specific transcription-inhibitory effect or cytotoxicity; conditions: tested concentration nearest to 50% inhibition in DT-C cells
Excerpt: as §1, §2, §3, §4, §5, §6, §7, §8, §9, §10, §11
b) Among the points of concentration tested, the concentration which is the nearest to 50% inhibition concentration at DT-C cells (IC50-C), was shown as an index of non-specific transcription-inhibitory effect or of cytotoxicity. In case of positive compounds, 50% inhibition concentration in DT-C cells which was higher than the active concentration was expressed as IC50-C.

[3] = test system: H460; test: In vitro cell growth inhibition test, MTT assay; conditions: MTT assay 4 days after compound addition
Excerpt: [The source words this procedure for another cell line and reports this cell line under the same test.] (§12) Test Example 2 In vitro cell growth inhibition test Cells and MTT assay
(§13) Human squamous lung cancer […], human squamous lung cancer Ma44, human lung adenocarcinoma A549, human colon cancer HT29 and human pancreas cancer PANC-1 were used.

[4] = test system: human colon cancer HT29; test: In vitro cell growth inhibition test, MTT assay; conditions: MTT assay 4 days after compound addition
Excerpt: as §12, §13

[5] = test system: human lung adenocarcinoma A549; test: In vitro cell growth inhibition test, MTT assay; conditions: MTT assay 4 days after compound addition
Excerpt: as §12, §13

[6] = test system: human pancreas cancer PANC-1; test: In vitro cell growth inhibition test, MTT assay; conditions: MTT assay 4 days after compound addition
Excerpt: as §12, §13

[7] = test system: human squamous lung cancer Ma44; test: In vitro cell growth inhibition test, MTT assay; conditions: MTT assay 4 days after compound addition
Excerpt: as §12, §13

[8] = test system: human squamous lung cancer RERF-RC-AI; test: In vitro cell growth inhibition test, MTT assay; conditions: MTT assay 4 days after compound addition
Excerpt: as §12, §13

| Structure (SMILES) | MAC (Minimal Active Concentration) [1] [µg/mL] | IC50 (IC50-C) [2] [ng/mL] | IC50 H460 [3] [ng/mL] | IC50 HT-29 [4] [ng/mL] | IC50 A549 [5] [ng/mL] | IC50 PANC-1 [6] [ng/mL] | IC50 Ma44 [7] [ng/mL] | IC50 RERF-LC-AI [8] [ng/mL] |
| --- | --- | --- | --- | --- | --- | --- | --- | --- |
| CCCSC(=Nc1nc(C)ncc1CSc1nnc(-c2ccc([N+](=O)[O-])cc2)o1)NC [Compound A-7] | 0.123 | 3330 (≈ 7.25 µM) | 3.8 (≈ 0.00827 µM) | 3.6 (≈ 0.00783 µM) | 2.1 (≈ 0.00457 µM) | 0.6 (≈ 0.00131 µM) | 1.6 (≈ 0.00348 µM) | 1.3 (≈ 0.00283 µM) |
| CCCNC(=Nc1nc(C)ncc1CSc1nnc(-c2ccc(N)cc2)o1)SC [Compound A-12] | 0.0137 | >10000 | 11.5 (≈ 0.0268 µM) | 6.3 (≈ 0.0147 µM) | 8 (≈ 0.0186 µM) | 9.1 (≈ 0.0212 µM) | 9.5 (≈ 0.0221 µM) | 5.7 (≈ 0.0133 µM) |
| CCCSC(=Nc1nc(C)ncc1CSc1nnc(-c2ccc([N+](=O)[O-])cc2)o1)NCC [Compound A-8] | 0.123 | >10000 | 6.8 (≈ 0.0144 µM) | 41.4 (≈ 0.0874 µM) | 9.3 (≈ 0.0196 µM) | 37.1 (≈ 0.0783 µM) | 34.1 (≈ 0.072 µM) | 27.8 (≈ 0.0587 µM) |
